Laboratory results reported in patent publication US20220133701A1, “METHODS OF TREATING PAIN” (Yeda Research and Development Co. Ltd., priority 2019, published 2022).

Legend:
importin α3 = assay: Western blot of importin α3 in HEK cells transduced with AAV9 constructs; type: cell-based; conditions: shα3 vs shCtrl, α3OE vs GFP (FIGS. 3A-C)
Procedure: Transfection and Western blot analysis: Knockdown and overexpression constructs were tested in HEK or N2A cells transfected using JetPEI (Polyplus) according to manufacturer's instructions and lysed 48 hours later in RIPA buffer supplemented with protease inhibitors (Complete, Roche). For Western blot analysis, 5 μg of protein was separated on TGX Protean 5-15% gradient gels (Biorad) and transferred to nitrocellulose membranes. Membranes were blocked with 5% dried milk-TBST and probed overnight with an importin α3 antibody (1:5000) and GAPDH (MAB374, Millipore, 1:5000) as a loading control in 2% milk-TBST, followed by an anti-mouse HRP-conjugated antibody (#1706516 Biorad). Chemiluminescence was detected with Amersham Imager 600 and band intensities were quantified using the built-in software. AAV production and intrathecal injection: Purified adeno-associated virus (AAV) or the peripheral neuron specific PHP.S (AAV-PHP.S) [K. Y. Chan et al., Nat Neurosci 20, 1172-1179 (2017)] was produced in HEK 293T cells (ATCC®), with the AAVpro® Purification Kit (All Serotypes) from TaKaRa (#6666). For each construct ten 15 cm plates were transfected with 20 μg of DNA (AAV-plasmid containing the construct of interest and two AASV9 or AAV-PHP.S helper plasmids) using jetPEI® (Polyplus) in DMEM medium without serum or antibiotics. […]

Kpna4/importin α3 mRNA = assay: RT-qPCR of importin α3 (Kpna4) mRNA in DRG cultures after intrathecal AAV; type: in vivo, mouse; conditions: DRG cultures from mice one month following intrathecal injection; vs shCtrl (FIG. 3F)
Procedure: Gene expression analysis by RT-qPCR: Total RNA from DRG neuronal cultures and DRG tissue from SNI mice were extracted using the Ambion RNAqueous-Micro total RNA isolation kit (Life Technologies Corp.). RNA purity, integrity (RIN>8) and concentration was determined, and 100-200 ng of total RNA was then used to synthesize cDNA using SuperScript III (Invitrogen). RT-qPCR was performed on a ViiA7 System (Applied Biosystems) using PerfeCTa SYBR Green (Quanta Biosciences, Gaithersburg, USA). Forward/Reverse primers were designed for different exons and the RNA was treated with […] to avoid false-positives. Amplicon specificity was verified by melting curve analysis. All RT-qPCR reactions were conducted in technical triplicates and the results were averaged for each sample, normalized to Actb levels and the relevant reporter genes such as GFP and for the viruses; and analyzed using the comparative ΔΔCt method [Livak & Schmittgen. Methods 25, 402 (2001)]. The following primers (Mus musculus) were used: […]

Substance: shα3: AAV9 expressing an importin α3 targeting shRNA (SEQ ID NO: 8), intrathecal injection (DNA GATCCGGCTTTGACAAACATTGCATGAAGCTTGATGCAATGTTTGTCAAAGCCTTTTTT)
- impα3 protein level (western blot, GAPDH normalized) (importin α3): downregulation
- impα3 mRNA (RT-qPCR, log 2 fold-change normalized to GFP) (Kpna4/importin α3 mRNA): significant downregulation of impα3 mRNA
